Measurements from patent US8420657B2 (Novartis AG, priority 2008, dated 2013).

Columns and labels:
[1] = tested on: JAK2-dependent nuclear translocation of STAT5-GFP in U-2 OS osteosarcoma cells; assay: STAT5 nuclear translocation assay (Cellomics), rhEpo stimulated U-2 OS STAT5-GFP cells; type: cell-based; conditions: STAT5 translocation pathway
How it was run: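 U-2 OS cells stably expressing STAT5a-GFP and EpoR pre-treated with compound (final 10 μM to 0.003 μM, 0.1% DMSO) for 30 min at 37° C., then stimulated 1 h with 5 U/ml rhEpo. Nuclear-cytoplasmic GFP differential quantified by automated imaging (≥1000 cells/well, Hoechst nuclear mask). IC50 from % translocation normalized to untreated and DMSO-stimulated controls.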

GST-JAK2(808-1132) = biological target: T1, GST-JAK2(808-1132) (Homo sapiens, UniProt O60674); assay: JAK2 kinase assay (Caliper mobility shift, LabChip 3000); type: biochemical
T1 construct: GST-JAK2(808-1132); purchased Invitrogen (Carlsbad, USA) #4288
T1 sequence (O60674 808-1132): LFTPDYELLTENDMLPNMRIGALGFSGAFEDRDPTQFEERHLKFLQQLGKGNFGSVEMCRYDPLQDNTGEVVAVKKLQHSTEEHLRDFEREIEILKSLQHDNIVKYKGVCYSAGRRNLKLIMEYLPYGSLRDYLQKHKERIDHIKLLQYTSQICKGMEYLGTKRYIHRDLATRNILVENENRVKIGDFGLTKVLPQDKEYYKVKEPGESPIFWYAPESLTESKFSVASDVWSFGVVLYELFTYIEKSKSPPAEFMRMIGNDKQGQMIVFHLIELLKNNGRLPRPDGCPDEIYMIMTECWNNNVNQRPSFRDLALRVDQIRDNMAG
How it was run: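 Recombinant GST-JAK2(808-1132) kinase domain with FITC-labelled JAK3tide peptide substrate and ATP; 60 min at 30 °C, EDTA stop. Substrate/product ratio read by microfluidic mobility shift; compounds at 8 final concentrations, 10 to 0.003 μM.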

Row | IC50 ([1]; Homo sapiens, U2OS) [nM] | IC50 (GST-JAK2(808-1132)) [nM] | IC50 [1] [nM] | Compound
1 | 13.3 | ≤ 3 | – | OC1CCN(c2ccc(Nc3ncc4ccn(-c5cc(F)c(CN6CCOCC6)c(F)c5)c4n3)cn2)C1 (racemic) [Example 347, 1-{5-[7-(3,5-Difluoro-4-morpholin-4-ylmethyl-phenyl)-7H-pyrrolo[2,3-d]pyrimidin-2-ylamino]-pyridin-2-yl}-pyrrolidin-3-ol]
2 | 22.1 | ≤ 3 | – | Fc1cc(-n2ccc3cnc(Nc4ccnc(OCCN5CCOCC5)c4)nc32)cc(F)c1CN1CCOCC1 [Example 352, [7-(3,5-Difluoro-4-morpholin-4-yl methyl-phenyl)-7H-pyrrolo[2,3-d]pyrimidin-2-yl]-[2-(2-morpholin-4-yl-ethoxy)-pyridin-4-yl]-amine]
3 | 12.3 | ≤ 3 | – | Cc1cc(Nc2ncc3ccn(-c4cc(F)c(CN5CCOCC5=O)c(F)c4)c3n2)cnc1N1C[C@@H](C)N[C@@H](C)C1 [Example 483, 4-(4-{2-[6-(cis-3,5-Dimethyl-piperazin-1-yl)-5-methyl-pyridin-3-ylamino]-pyrrolo[2,3-d]pyrimidin-7-yl}-2,6-difluoro-benzyl)-morpholin-3-one]
4 | 305 | ≤ 3 | – | Fc1cc(-n2ccc3cnc(Nc4ccnc(CN5CCN(C6CC6)CC5)c4)nc32)cc(F)c1CN1CCOCC1 [Example 407, [2-(4-Cyclopropyl-piperazin-1-ylmethyl)-pyridin-4-yl]-[7-(3,5-difluoro-4-morpholin-4-ylmethyl-phenyl)-7H-pyrrolo[2,3-d]pyrimidin-2-yl]-amine]
5 | 718 | 17 | – | C[C@@H]1CN(Cc2ccc(Nc3ncc4ccn(-c5cc(F)c(CN6CCOCC6)c(F)c5)c4n3)c(F)c2)C[C@H](C)N1 [Example 477, [7-(3,5-Difluoro-4-morpholin-4-ylmethyl-phenyl)-7H-pyrrolo[2,3-d]pyrimidin-2-yl]-[4-(cis-3,5-dimethyl-piperazin-1-ylmethyl)-2-fluoro-phenyl]-amine]
6 | 5.7 | ≤ 3 | – | Cc1ccc(Nc2ncc3ccn(-c4cc(F)c(CN5CCS(=O)(=O)CC5)c(F)c4)c3n2)cc1CN1CCN(C)C(=O)C1 [Example 422, 4-(5-{7-[4-(1,1-Dioxido-thiomorpholin-4-ylmethyl)-3,5-difluoro-phenyl]-7H-pyrrolo[2,3-d]pyrimidin-2-ylamino}-2-methyl-benzyl)-1-methyl-piperazin-2-one]
7 | 152 | 24 | – | O=C(c1cc(Nc2ncc3ccn(-c4cc(F)c(CN5CCOCC5)c(F)c4)c3n2)ccn1)N1CCOC2(COC2)C1 [Example 362, {4-[7-(3,5-Difluoro-4-morpholin-4-ylmethyl-phenyl)-7H-pyrrolo[2,3-d]pyrimidin-2-ylamino]-pyridin-2-yl}-(2,5-dioxa-8-aza-spiro[3.5]non-8-yl)-methanone]
8 | 4.2 | ≤ 3 | – | Cc1ccc(Nc2ncc3ccn(-c4cc(F)c(CN5CCOCC5)c(F)c4)c3n2)cc1Cn1cnnc1 [Example 414, [7-(3,5-Difluoro-4-morpholin-4-ylmethyl-phenyl)-7H-pyrrolo[2,3-d]pyrimidin-2-yl]-(4-methyl-3-[1,2,4]triazol-4-ylmethyl-phenyl)-amine]
9 | 21 | ≤ 3 | – | Fc1cc(-n2ccc3cnc(Nc4ccc(N5CCN(C6CC6)CC5)nc4)nc32)cc(F)c1CN1CCOCC1 [Example 457, [6-(4-Cyclopropyl-piperazin-1-yl)-pyridin-3-yl]-[7-(3,5-difluoro-4-morpholin-4-ylmethyl-phenyl)-7H-pyrrolo[2,3-d]pyrimidin-2-yl]-amine]
10 | 110 | ≤ 3 | – | Cc1ccc(Nc2ncc3ccn(-c4cc(F)c(CN5CCOCC5=O)c(F)c4)c3n2)cc1CN1CCNCC1 [Example 485, 4-{2,6-Difluoro-4-[2-(4-methyl-3-piperazin-1-ylmethyl-phenylamino)-pyrrolo[2,3-d]pyrimidin-7-yl}-benzyl]-morpholin-3-one]
11 | 17 | 61 | – | O=C1CNCCN1c1ccc(Nc2ncc3ccn(-c4cc(F)c(CN5CCOCC5)c(F)c4)c3n2)cn1 [Example 470, 1-{5-[7-(3,5-Difluoro-4-morpholin-4-ylmethyl-phenyl)-7H-pyrrolo[2,3-d]pyrimidin-2-ylamino]-pyridin-2-yl}-piperazin-2-one]
12 | 12.3 | ≤ 3 | – | CC1(C)CN(Cc2ccc(Nc3ncc4ccn(-c5cc(F)c(CN6CCOCC6)c(F)c5)c4n3)cc2)CCN1 [Example 473, [7-(3,5-Difluoro-4-morpholin-4-ylmethyl-phenyl)-7H-pyrrolo[2,3-d]pyrimidin-2-yl]-[4-(3,3-dimethyl-piperazin-1-ylmethyl)-phenyl]-amine]
13 | 14.8 | 4.1 | – | CCN1CCOC[C@@H]1c1ccc(Nc2ncc3ccn(-c4cc(F)c(CN5CCOCC5)c(F)c4)c3n2)cc1 [Example 508, [7-(3,5-Difluoro-4-morpholin-4-ylmethyl-phenyl)-7H-pyrrolo[2,3-d]pyrimidin-2-yl]-[4-((S)-4-ethyl-morpholin-3-yl)-phenyl]-amine]
14 | 3.4 | ≤ 3 | – | Cc1ccc(Nc2ncc3ccn(-c4cc(F)c(CN5CCS(=O)(=O)CC5)c(F)c4)c3n2)cc1CN1CCC(N(C)C)C1 (racemic) [Example 435, [3-(3-Dimethylamino-pyrrolidin-1-ylmethyl)-4-methyl-phenyl]-{7-[4-(1,1-dioxido-thiomorpholin-4-ylmethyl)-3,5-difluoro-phenyl]-7H-pyrrolo[2,3-d]pyrimidin-2-yl}-amine]
15 | 104 | 5.1 | – | O=C(c1cccc(Nc2ncc3ccn(-c4cc(F)c(CN5CCOCC5)c(F)c4)c3n2)c1)N1CCN(C2CC2)CC1 [Example 459, (4-Cyclopropyl-piperazin-1-yl)-{3-[7-(3,5-difluoro-4-morpholin-4-ylmethyl-phenyl)-7H-pyrrolo[2,3-d]pyrimidin-2-ylamino]-phenyl}-methanone]
16 | 0.2 | < 3 | – | Fc1cc(-n2ccc3cnc(Nc4cccc([C@H]5COCCN5)c4)nc32)cc(F)c1CN1CCOCC1 [Example 507, [7-(3,5-Difluoro-4-morpholin-4-ylmethyl-phenyl)-7H-pyrrolo[2,3-d]pyrimidin-2-yl]-((S)-3-morpholin-3-yl-phenyl)-amine]
17 | 6.3 | ≤ 3 | – | Cc1cc(Nc2ncc3ccn(-c4cc(F)c(CN5CCOCC5)c(F)c4)c3n2)cc(C)c1OCCN1CCOCC1 [Example 433, [7-(3,5-Difluoro-4-morpholin-4-ylmethyl-phenyl)-7H-pyrrolo[2,3-d]pyrimidin-2-yl]-[3,5-dimethyl-4-(2-morpholin-4-yl-ethoxy)-phenyl]-amine]
18 | 2.8 | ≤ 3 | – | Cc1cc(Nc2ncc3ccn(-c4cc(F)c(CN5CCOCC5)c(F)c4)c3n2)ccc1[C@H]1CCCN1 [Example 346, [7-(3,5-Difluoro-4-morpholin-4-ylmethyl-phenyl)-7H-pyrrolo[2,3-d]pyrimidin-2-yl]-((R)-3-methyl-4-pyrrolidin-2-yl-phenyl)-amine]
19 | 135 | 13 | – | C[C@@H]1CN(C(=O)c2cc(Nc3ncc4ccn(-c5cc(F)c(CN6CCOCC6)c(F)c5)c4n3)ccn2)C[C@H](C)N1 [Example 371, {4-[7-(3,5-Difluoro-4-morpholin-4-ylmethyl-phenyl)-7H-pyrrolo[2,3-d]pyrimidin-2-ylamino]-pyridin-2-yl}-(cis-3,5-dimethyl-piperazin-1-yl)-methanone]
20 | 59 | 7.2 | – | Cc1ccc(Nc2ncc3ccn(-c4cc(F)c(CN5CCOCC5)c(F)c4)c3n2)cc1CN1CCOC2(COC2)C1 [Example 358, [7-(3,5-Difluoro-4-morpholin-4-ylmethyl-phenyl)-7H-pyrrolo[2,3-d]pyrimidin-2-yl]-[3-(2,5-dioxa-8-aza-spiro[3,5]non-8-ylmethyl)-4-methyl-phenyl]-amine]
21 | 81.5 | ≤ 3 | – | CN1CCN(c2cc(Nc3ncc4ccn(-c5cc(F)c(CN6CCOCC6)c(F)c5)c4n3)ccn2)CC1=O [Example 504, 4-{4-[7-(3,5-Difluoro-4-morpholin-4-ylmethyl-phenyl)-7H-pyrrolo[2,3-d]pyrimidin-2-ylamino]-pyridin-2-yl}-1-methyl-piperazin-2-one]
22 | 150 | 4.9 | – | C[C@@H]1CN(Cc2cc(Nc3ncc4ccn(-c5cc(F)c(CN6CCOCC6)c(F)c5)c4n3)ccn2)C[C@H](C)N1 [Example 391, [7-(3,5-Difluoro-4-morpholin-4-ylmethyl-phenyl)-7H-pyrrolo[2,3-d]pyrimidin-2-yl]-[2-(cis-3,5-dimethyl-piperazin-1-ylmethyl)-pyridin-4-yl]-amine]
23 | 28.5 | ≤ 3 | – | Cc1ccc(Nc2ncc3ccn(-c4cc(F)c(CN5CCOCC5)c(F)c4)c3n2)cc1Cn1cccn1 [Example 413, [7-(3,5-Difluoro-4-morpholin-4-ylmethyl-phenyl)-7H-pyrrolo[2,3-d]pyrimidin-2-yl]-(4-methyl-3-pyrazol-1-ylmethyl-phenyl)-amine]
24 | 5.3 | 3.7 | – | Cc1ccc(Nc2ncc3ccn(-c4cc(F)c(CN5CCOCC5)c(F)c4)c3n2)cc1CN1C[C@@H](C)N[C@@H](C)C1 [Example 355, [7-(3,5-Difluoro-4-morpholin-4-yl methyl-phenyl)-7H-pyrrolo[2,3-d]pyrimidin-2-yl]-[3-(cis-3,5-dimethyl-piperazin-1-ylmethyl)-4-methyl-phenyl]-amine]
25 | – | 25 | 1320 | [6-Azetidin-3-yloxy)-pyridin-3-yl]-[7-(3,5-difluoro-4-morpholin-4-ylmethyl-phenyl)-7H-pyrrolo[2,3-d]pyrimidin-2-yl]-amine [Example 514]
